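In this assay, cells in 96-well plates receive the compound at five concentrations for 48 hours. Endpoints are linearly interpolated between the surrounding concentrations. TGI denotes the concentration required for complete inhibition of growth.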
Legend:
Experiment in all cases: NCI-60 cell line screen, 48 h
EKVX NSCLC = system: EKVX NSCLC
UACC-257 melanoma = system: UACC-257 melanoma
UO-31 renal = system: UO-31 renal
NCI-H23 lung = system: NCI-H23 lung
SK-MEL-28 melanoma = system: SK-MEL-28 melanoma
MCF7 breast = system: MCF7 breast
SK-OV-3 ovarian = system: SK-OV-3 ovarian
OVCAR-3 ovarian = system: OVCAR-3 ovarian
SW-620 colon = system: SW-620 colon
DU-145 prostate = system: DU-145 prostate
NCI-H460 lung = system: NCI-H460 lung
COLO 205 colon = system: COLO 205 colon
UACC-62 melanoma = system: UACC-62 melanoma
T-47D breast = system: T-47D breast
A549 NSCLC = system: A549 NSCLC
SF-295 CNS = system: SF-295 CNS
HOP-92 NSCLC = system: HOP-92 NSCLC
SNB-19 CNS = system: SNB-19 CNS
OVCAR-8 ovarian = system: OVCAR-8 ovarian
SF-539 CNS = system: SF-539 CNS
MOLT-4 leukemia = system: MOLT-4 leukemia
SK-MEL-2 melanoma = system: SK-MEL-2 melanoma
SF-268 CNS = system: SF-268 CNS
TK-10 renal = system: TK-10 renal
HT29 colon = system: HT29 colon
ACHN renal = system: ACHN renal
HOP-62 NSCLC = system: HOP-62 NSCLC
HCT-116 colon = system: HCT-116 colon
PC-3 prostate = system: PC-3 prostate
LOX IMVI melanoma = system: LOX IMVI melanoma
MDA-MB-231 breast = system: MDA-MB-231 breast
A498 renal = system: A498 renal
NCI-H522 lung = system: NCI-H522 lung
MDA-MB-435 = system: MDA-MB-435
IGROV1 ovarian = system: IGROV1 ovarian
OVCAR-4 ovarian = system: OVCAR-4 ovarian
U251 CNS = system: U251 CNS
MALME-3M melanoma = system: MALME-3M melanoma
KM12 colon = system: KM12 colon
SN12C renal = system: SN12C renal
BT-549 breast = system: BT-549 breast
CAKI-1 renal = system: CAKI-1 renal
HL-60(TB) leukemia = system: HL-60(TB) leukemia
SK-MEL-5 melanoma = system: SK-MEL-5 melanoma
NCI-H226 lung = system: NCI-H226 lung
NCI/ADR-RES ovarian = system: NCI/ADR-RES ovarian
RXF 393 renal = system: RXF 393 renal
786-0 renal = system: 786-0 renal
M14 melanoma = system: M14 melanoma
OVCAR-5 ovarian = system: OVCAR-5 ovarian
SNB-75 CNS = system: SNB-75 CNS
CCRF-CEM leukemia = system: CCRF-CEM leukemia
HCT-15 colon = system: HCT-15 colon
HCC-2998 colon = system: HCC-2998 colon
HS 578T breast = system: HS 578T breast
K-562 leukemia = system: K-562 leukemia
RPMI-8226 leukemia = system: RPMI-8226 leukemia

N#Cc1cc(-c2nc3cc(F)ccc3s2)ccc1N
TGI (EKVX NSCLC): 98.8 µM
TGI (UACC-257 melanoma): > 100 µM
TGI (UO-31 renal): > 100 µM
TGI (NCI-H23 lung): 0.848 µM
TGI (SK-MEL-28 melanoma): > 100 µM
TGI (MCF7 breast): 0.583 µM
TGI (SK-OV-3 ovarian): > 92.3 µM
TGI (OVCAR-3 ovarian): > 100 µM
TGI (SW-620 colon): > 100 µM
TGI (DU-145 prostate): > 100 µM
TGI (NCI-H460 lung): 17.8 µM
TGI (COLO 205 colon): > 100 µM
TGI (UACC-62 melanoma): > 87.7 µM
TGI (T-47D breast): 0.22 µM
TGI (A549 NSCLC): > 68.4 µM
TGI (SF-295 CNS): > 100 µM
TGI (HOP-92 NSCLC): 29.6 µM
TGI (SNB-19 CNS): > 66.6 µM
TGI (OVCAR-8 ovarian): > 100 µM
TGI (SF-539 CNS): 56.7 µM
TGI (MOLT-4 leukemia): > 100 µM
TGI (SK-MEL-2 melanoma): > 66.8 µM
TGI (SF-268 CNS): > 78.3 µM
TGI (TK-10 renal): 1.69 µM
TGI (HT29 colon): > 100 µM
TGI (ACHN renal): 62.5 µM
TGI (HOP-62 NSCLC): > 100 µM
TGI (HCT-116 colon): > 100 µM
TGI (PC-3 prostate): > 100 µM
TGI (LOX IMVI melanoma): > 100 µM
TGI (MDA-MB-231 breast): > 85.1 µM
TGI (A498 renal): > 56.4 µM
TGI (NCI-H522 lung): > 100 µM
TGI (MDA-MB-435): > 100 µM
TGI (IGROV1 ovarian): 13.9 µM
TGI (OVCAR-4 ovarian): > 93.5 µM
TGI (U251 CNS): > 82.1 µM
TGI (MALME-3M melanoma): > 100 µM
TGI (KM12 colon): > 32.8 µM
TGI (SN12C renal): > 100 µM
TGI (BT-549 breast): 29.1 µM
TGI (CAKI-1 renal): > 100 µM
TGI (HL-60(TB) leukemia): > 100 µM
TGI (SK-MEL-5 melanoma): > 100 µM
TGI (NCI-H226 lung): 79.3 µM
TGI (NCI/ADR-RES ovarian): > 100 µM
TGI (RXF 393 renal): 14.1 µM
TGI (786-0 renal): > 100 µM
TGI (M14 melanoma): 99.7 µM
TGI (OVCAR-5 ovarian): 2.9 µM
TGI (SNB-75 CNS): 6.68 µM
TGI (CCRF-CEM leukemia): > 100 µM
TGI (HCT-15 colon): > 100 µM
TGI (HCC-2998 colon): 0.0604 µM
TGI (HS 578T breast): > 100 µM
TGI (K-562 leukemia): > 100 µM
TGI (RPMI-8226 leukemia): > 100 µM

From PubChem BioAssay (NCI)
